Results as given in ChEMBL document CHEMBL5241069, “A key review on oxadiazole analogs as potential methicillin-resistant Staphylococcus aureus (MRSA) activity: Structure-activity relationship studies” (Eur J Med Chem, 2021).
≈ marks a conversion by molar mass, not a printed value.

What was measured:
Staphylococcus aureus [1] = assay: Antimicrobial activity against methicillin resistant Staphylococcus aureus USA300 assessed as inhibition of bacterial growth incubated for 16 to 20 hrs by CLSI protocol based method; assay type: functional; settings: time 16-20 hrs
Staphylococcus aureus [2] = assay: Antimicrobial activity against methicillin resistant Staphylococcus aureus A252 assessed as inhibition of bacterial growth incubated for 16 to 20 hrs by CLSI protocol based method; assay type: functional; settings: time 16-20 hrs
Staphylococcus aureus [3] = assay: Antimicrobial activity against Staphylococcus aureus Newman assessed as inhibition of bacterial growth incubated for 16 to 20 hrs by CLSI protocol based method; assay type: functional; settings: time 16-20 hrs
Staphylococcus aureus [4] = assay: Antibacterial activity against methicillin resistant Staphylococcus aureus ATCC 43300 assessed as inhibition of bacterial growth incubated for 24 to 48 hrs by spectrophotometric analysis; assay type: functional; settings: time 24-48 hrs
Staphylococcus aureus [5] = assay: Antibacterial activity against methicillin resistant Staphylococcus aureus MW2 assessed as inhibition of bacterial growth incubated for 16 to 20 hrs by CLSI protocol based Mueller-Hinton broth method; assay type: functional; settings: time 16-20 hrs
Staphylococcus aureus [6] = assay: Antibacterial activity against methicillin resistant Staphylococcus aureus USA300 assessed as inhibition of bacterial growth incubated for 16 to 20 hrs by CLSI protocol based Mueller-Hinton broth method; assay type: functional; settings: time 16-20 hrs
Staphylococcus aureus [7] = assay: Antibacterial activity against methicillin resistant Staphylococcus aureus MTCC 84 incubated for 24 hrs by serial dilution method; assay type: functional
Staphylococcus aureus [8] = assay: Potency index, ratio of chloramphenicol MIC to test compound MIC for antibacterial activity against methicillin resistant Staphylococcus aureus ATCC 43300 assessed as inhibition of bacterial growth incubated for 24 to 48 hrs by spectrophotometric analysis; assay type: functional; settings: time 24-48 hrs
Staphylococcus aureus [9] = assay: Potency index, ratio of ciprofloxacin MIC to test compound MIC for antibacterial activity against methicillin resistant Staphylococcus aureus ATCC 43300 assessed as inhibition of bacterial growth incubated for 24 to 48 hrs by spectrophotometric analysis; assay type: functional; settings: time 24-48 hrs
Staphylococcus aureus [10] = assay: Antimicrobial activity against methicillin resistant Staphylococcus aureus ATCC 43300 assessed as inhibition of bacterial growth incubated for 18 to 24 hrs by broth microdilution method; assay type: functional; settings: time 18-24 hrs
Staphylococcus aureus [11] = assay: Antimicrobial activity against methicillin resistant Staphylococcus aureus 1 assessed as inhibition of bacterial growth incubated for 16 to 20 hrs by CLSI protocol based Muller-Hinton broth method; assay type: functional; settings: time 16-20 hrs
Staphylococcus aureus [12] = assay: Antimicrobial activity against methicillin resistant Staphylococcus aureus 3 assessed as inhibition of bacterial growth incubated for 16 to 20 hrs by CLSI protocol based Muller-Hinton broth method; assay type: functional; settings: time 16-20 hrs
Staphylococcus aureus [13] = assay: Antimicrobial activity against methicillin resistant Staphylococcus aureus 2 assessed as inhibition of bacterial growth incubated for 16 to 20 hrs by CLSI protocol based Muller-Hinton broth method; assay type: functional; settings: time 16-20 hrs
Staphylococcus aureus [14] = assay: Antibacterial activity against methicillin resistant Staphylococcus aureus assessed as inhibition of bacterial growth; assay type: functional, organism-based
Staphylococcus aureus [15] = assay: Antimicrobial activity against methicillin resistant Staphylococcus aureus 2658 RCMB assessed as inhibition of bacterial growth incubated for 20 hrs by CLSI protocol based broth microdilution method; assay type: functional
Staphylococcus aureus [16] = assay: Antibacterial activity against methicillin resistant Staphylococcus aureus 181 assessed as inhibition of bacterial growth; assay type: functional
Staphylococcus aureus [17] = assay: Antibacterial activity against methicillin resistant Staphylococcus aureus 128 assessed as inhibition of bacterial growth; assay type: functional
Staphylococcus aureus [18] = assay: Antibacterial activity against methicillin resistant Staphylococcus aureus 747 assessed as inhibition of bacterial growth; assay type: functional
Staphylococcus aureus [19] = assay: Antibiofilm activity against methicillin resistant Staphylococcus aureus ATCC 43866 assessed as inhibition of biofilm formation incubated for 18 to 24 hrs by tissue culture plate method; assay type: functional; settings: time 18-24 hrs
Staphylococcus aureus [20] = assay: Antibacterial activity against methicillin resistant Staphylococcus aureus 42 assessed as inhibition of bacterial growth; assay type: functional
Staphylococcus aureus [21] = assay: Antibacterial activity against methicillin resistant Staphylococcus aureus incubated for 24 hrs by broth microdilution method; assay type: functional
Staphylococcus aureus [22] = assay: Antimicrobial activity against methicillin resistant Staphylococcus aureus ATCC 25923 assessed as inhibition of bacterial growth by agar diffusion cup plate method; assay type: functional

O=C(Nc1nnc(-c2ccc(F)cc2)o1)c1ccc(Cl)cc1
MIC (Staphylococcus aureus [1]): 0.64 µg/mL (≈ 2.01 µM) | MIC (Staphylococcus aureus [2]): 1.28 µg/mL (≈ 4.03 µM) | MIC (Staphylococcus aureus [3]): 1.28 µg/mL (≈ 4.03 µM)

O=C(/C=C/c1cccc([N+](=O)[O-])c1)N1N=C(c2ccncc2)OC1c1cn(-c2ccccc2)nc1-c1ccc(F)cc1 (stereo not drawn)
MIC (Staphylococcus aureus [4]): > 50 µg/mL

COc1cc(OC)cc(-c2nnc(NC(=O)c3ccc(S(=O)(=O)C4COCC4(C)C)cc3)o2)c1 (stereo not drawn)
MBC (Staphylococcus aureus [5]): 16 µg/mL (≈ 32.8 µM) | MBC (Staphylococcus aureus [6]): 8 µg/mL (≈ 16.4 µM)

CN[C@@H]1[C@H](O[C@H]2[C@H](O[C@H]3[C@H](O)[C@@H](O)[C@H](N=C(N)N)[C@@H](O)[C@@H]3N=C(N)N)O[C@@H](C)[C@]2(O)C=O)O[C@@H](CO)[C@H](O)[C@H]1O [STREPTOMYCIN]
MIC (Staphylococcus aureus [7]): > 100 µg/mL

O=C(/C=C/c1ccc(F)cc1)N1N=C(c2ccncc2)OC1c1cn(-c2ccccc2)nc1-c1ccc(F)cc1 (stereo not drawn)
Ratio (Staphylococcus aureus [8]): 8 | MIC (Staphylococcus aureus [4]): 6.25 µg/mL (≈ 11.7 µM) | Ratio (Staphylococcus aureus [9]): 4

O=C(/C=C/c1cccc(F)c1)N1N=C(c2ccncc2)OC1c1cn(-c2ccccc2)nc1-c1ccc(F)cc1 (stereo not drawn)
MIC (Staphylococcus aureus [4]): 25 µg/mL (≈ 46.9 µM)

C=C(C)C(=O)OCC[N+](CC)(CC)Cc1nnc(CCCCc2nnc(C[N+](CC)(CC)CCOC(=O)C(=C)C)o2)o1.[Cl-].[Cl-]
MIC (Staphylococcus aureus [10]): 0.98 µg/mL

CCn1cc(C(=O)O)c(=O)c2cc(F)c(N3CCN(Cc4nnc(-c5cccc(C)c5)o4)CC3)cc21
MIC (Staphylococcus aureus [11]): 1 µg/mL (≈ 2.03 µM) | MIC (Staphylococcus aureus [12]): 2 µg/mL (≈ 4.07 µM) | MIC (Staphylococcus aureus [13]): 1 µg/mL (≈ 2.03 µM)

CCn1cc(C(=O)O)c(=O)c2cc(F)c(N3CCN(Cc4nnc(-c5ccc(OC)cc5)o4)CC3)cc21
MIC (Staphylococcus aureus [11]): 1 µg/mL (≈ 1.97 µM) | MIC (Staphylococcus aureus [12]): 1 µg/mL (≈ 1.97 µM) | MIC (Staphylococcus aureus [13]): 0.5 µg/mL (≈ 0.985 µM)

2-((phenylbismuthino)thio)-5-(2-(p-tolyl)thiazol-4-yl)-1,3,4-oxadiazole
MIC (Staphylococcus aureus [14]): 1.1 µM

CCn1cc(C(=O)O)c(=O)c2cc(F)c(N3CCN(Cc4nnc(-c5ccccc5Cl)o4)CC3)cc21
MIC (Staphylococcus aureus [11]): 0.5 µg/mL (≈ 0.977 µM) | MIC (Staphylococcus aureus [12]): 1 µg/mL (≈ 1.95 µM) | MIC (Staphylococcus aureus [13]): 1 µg/mL (≈ 1.95 µM)

O=C(N[C@H](CO)[C@H](O)c1ccc([N+](=O)[O-])cc1)C(Cl)Cl [CHLORAMPHENICOL]
MIC (Staphylococcus aureus [4]): 50 µg/mL (≈ 155 µM)

Cc1nc(-c2ccc3ccccc3c2)sc1-c1nnc(NN)o1
MIC (Staphylococcus aureus [15]): 3.9 µg/mL (≈ 12.1 µM)

CN[C@H](CC(C)C)C(=O)N[C@H]1C(=O)N[C@@H](CC(N)=O)C(=O)N[C@H]2C(=O)N[C@H]3C(=O)N[C@H](C(=O)N[C@H](C(=O)O)c4cc(O)cc(O)c4-c4cc3ccc4O)[C@H](O)c3ccc(c(Cl)c3)Oc3cc2cc(c3O[C@@H]2O[C@H](CO)[C@@H](O)[C@H](O)[C@H]2O[C@H]2C[C@](C)(N)[C@H](O)[C@H](C)O2)Oc2ccc(cc2Cl)[C@H]1O [VANCOMYCIN]
MIC (Staphylococcus aureus [16]): 20.3 µg/mL (≈ 14 µM) | MIC (Staphylococcus aureus [17]): 20.7 µg/mL (≈ 14.3 µM) | MIC (Staphylococcus aureus [18]): 21.6 µg/mL (≈ 14.9 µM) | MIC (Staphylococcus aureus [15]): 1.95 µg/mL (≈ 1.35 µM) | MIC (Staphylococcus aureus [19]): 6.25 µg/mL (≈ 4.31 µM) | MIC (Staphylococcus aureus [20]): 13.1 µg/mL (≈ 9.04 µM)

C=C(C)C(=O)OCC[N+](C)(C)Cc1nnc(CCCCc2nnc(C[N+](C)(C)CCOC(=O)C(=C)C)o2)o1.[Cl-].[Cl-]
MIC (Staphylococcus aureus [10]): 0.98 µg/mL

Nc1scc(-c2ccc(F)cc2)c1-c1nnc(S)o1
MIC (Staphylococcus aureus [21]): 8 µg/mL (≈ 27.3 µM)

COc1ccc(-c2nnc(C)o2)cc1
MIC (Staphylococcus aureus [22]): 25 µg/mL (≈ 131 µM)

Cc1ccc(OCc2nnco2)c(C(=O)c2cccc(Cl)c2)c1
MIC (Staphylococcus aureus [7]): 62.5 µg/mL (≈ 190 µM)

Cc1nc(-c2ccc3ccccc3c2)sc1-c1nnc(N2CC(O)C2)o1
MIC (Staphylococcus aureus [15]): 3.9 µg/mL (≈ 10.7 µM)

CCn1cc(C(=O)O)c(=O)c2cc(F)c(N3CCN(Cc4nnc(-c5ccc(F)cc5Cl)o4)CC3)cc21
MIC (Staphylococcus aureus [11]): 1 µg/mL (≈ 1.89 µM) | MIC (Staphylococcus aureus [12]): 1 µg/mL (≈ 1.89 µM) | MIC (Staphylococcus aureus [13]): 1 µg/mL (≈ 1.89 µM)
